In one test the target is T1, LFA-1 (Homo sapiens, UniProt P05107+P20701).
T1 construct: endogenous in cells; host or cells: primary human T cells from healthy donors: PHA-induced T cell blasts, sorted EM and naive CD8 T cells, and NY-ESO-1 TCR-transduced REP T cells
The test can be described thus: Co-culture assay with Blinatumomab, LFA-1 head-piece opening on PHA-blasts. Type of test: cell-based. The settings on record: 30 min co-culture with Ramos cells; Blinatumomab 300 pg ml^−1; ±Mg^2+. The protocol:
FIG. 3: Magnesium regulates LFA-1 mediated T cell activation and cytotoxicity as well BiTE- and CAR T-cell functionality. (a) Glycolytic switch of murine WT and LFA-1^−/− CTLs upon injection of anti-CD3/28 Ab in medium containing 1.2 mM Mg^2+ and 0 mM Mg^2+, presented as quantification of summarized data with n=4 mice. (b) Calcium flux in WT and LFA-1^−/− Jurkat T cells stimulated with anti-CD3 Ab in 1.2 mM and 0 mM Mg^2+ medium, respectively. Cells were loaded with Fluo4, and signal intensity as recorded by plate reader, was normalized to unstimulated baseline values. […] Quantified results of n=3 mice with 3 technical replicates each. […] Results are quantified of n=3 mice with 3 technical replicates each. (e) Representative CD11a (LFA-1) surface expression on human naïve and EM CD8 T cells, PHA T cell blasts and REP T cells, assessed by flow cytometry. […] Data is presented as quantified results of n=5 healthy donors (f, g, h), n=3 healthy donors with 2 technical replicates each or n=1 healthy donor with 4 technical replicates (j). […] Data is presented as quantified results of n=1 healthy donor with 4 technical replicates. […] Cytotoxicity is reported as total area under the curve of the fluorescence driven by incorporation of cytotoxic green reagent in dead target cells (green area per μm^2). […]

Test [1] deals with focal adhesion kinase (FAK), TNF. The test can be described thus: FAK phosphorylation and TNF expression in activated PHA T cell blasts. Type of test: cell-based, human. Conditions: Mg^2+-restricted conditions. The method, then: FIG. 2: Extracellular magnesium promotes memory-specific activation via LFA-1. Glycolytic switch of human EM CD8 T cells (a) and naïve CD8 T cells (b) subsets upon injection of anti-CD3 Ab only, or anti-CD3 and anti-CD28 Ab, was assessed by metabolic flux analysis in medium containing either 1.2 mM Mg^2+, 0 mM Mg^2+, or medium which was reconstituted from 0 mM to 1.2 mM Mg^2+ immediately prior to activation (0→1.2 mM Mg^2+). (a) Results for human effector memory (EM) and (b) for human naïve CD8 T cells. Glycolytic switch was quantified by subtracting […] measurements. (c) Flow cytometric analysis of surface activation markers on human EM CD8 T cells 24 hours after activation by plate-bound anti-CD3 Ab and soluble anti-CD28 Ab, in 1.2 mM and 0 mM Mg^2+ media, respectively. (d) Abundance of inflammatory cytokines in corresponding EM CD8 T cell culture supernatants, determined by CBA. (e) CD11a (LFA-1) surface expression on human naïve and EM CD8 T cells as well PHA T cell blasts. Flow cytometry-based assessment of total LFA-1 expression assessed by mAb TS2/4 (f), closed conformation of αL by mAb HI111 (g), extended conformation of LFA-1 by mAb Kim127 (h), open head-piece conformation of LFA-1 by mAb m24 (i), phosphorylation of focal adhesion kinase (FAK) […] as well TNF expression (k)±TCR-induced activation in different extracellular Mg^2+ concentrations. […]

Structures are written as SMILES.

T1 sequence (P20701 26-1170): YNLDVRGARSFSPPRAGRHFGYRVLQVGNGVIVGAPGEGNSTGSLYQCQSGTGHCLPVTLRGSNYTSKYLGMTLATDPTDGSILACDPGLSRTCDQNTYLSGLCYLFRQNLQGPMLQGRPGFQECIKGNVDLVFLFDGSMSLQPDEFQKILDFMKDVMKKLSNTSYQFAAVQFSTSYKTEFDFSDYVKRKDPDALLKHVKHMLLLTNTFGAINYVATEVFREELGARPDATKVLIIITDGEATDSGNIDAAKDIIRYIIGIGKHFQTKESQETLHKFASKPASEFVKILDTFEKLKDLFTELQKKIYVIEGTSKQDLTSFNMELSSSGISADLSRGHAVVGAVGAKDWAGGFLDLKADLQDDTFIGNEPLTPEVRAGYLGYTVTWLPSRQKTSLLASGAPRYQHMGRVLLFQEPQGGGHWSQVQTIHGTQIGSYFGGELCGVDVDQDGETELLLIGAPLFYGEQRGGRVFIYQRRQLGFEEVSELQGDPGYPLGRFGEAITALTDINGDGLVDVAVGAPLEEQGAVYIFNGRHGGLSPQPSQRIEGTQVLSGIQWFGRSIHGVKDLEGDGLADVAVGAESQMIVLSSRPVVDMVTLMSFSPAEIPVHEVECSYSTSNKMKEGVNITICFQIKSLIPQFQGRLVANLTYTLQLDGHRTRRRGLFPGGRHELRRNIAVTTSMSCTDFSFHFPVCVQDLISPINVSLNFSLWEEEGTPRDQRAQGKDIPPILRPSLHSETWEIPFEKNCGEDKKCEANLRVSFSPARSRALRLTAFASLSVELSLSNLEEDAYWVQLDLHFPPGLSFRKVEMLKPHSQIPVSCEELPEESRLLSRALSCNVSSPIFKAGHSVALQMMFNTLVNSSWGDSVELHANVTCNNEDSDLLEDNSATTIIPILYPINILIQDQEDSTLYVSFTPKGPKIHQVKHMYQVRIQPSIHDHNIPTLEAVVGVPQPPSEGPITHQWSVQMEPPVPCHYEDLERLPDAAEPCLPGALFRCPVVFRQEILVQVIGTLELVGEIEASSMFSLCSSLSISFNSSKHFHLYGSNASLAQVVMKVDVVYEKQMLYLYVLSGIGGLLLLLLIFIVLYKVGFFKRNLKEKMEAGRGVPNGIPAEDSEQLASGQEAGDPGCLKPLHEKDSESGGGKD
T1 sequence (P05107 23-769): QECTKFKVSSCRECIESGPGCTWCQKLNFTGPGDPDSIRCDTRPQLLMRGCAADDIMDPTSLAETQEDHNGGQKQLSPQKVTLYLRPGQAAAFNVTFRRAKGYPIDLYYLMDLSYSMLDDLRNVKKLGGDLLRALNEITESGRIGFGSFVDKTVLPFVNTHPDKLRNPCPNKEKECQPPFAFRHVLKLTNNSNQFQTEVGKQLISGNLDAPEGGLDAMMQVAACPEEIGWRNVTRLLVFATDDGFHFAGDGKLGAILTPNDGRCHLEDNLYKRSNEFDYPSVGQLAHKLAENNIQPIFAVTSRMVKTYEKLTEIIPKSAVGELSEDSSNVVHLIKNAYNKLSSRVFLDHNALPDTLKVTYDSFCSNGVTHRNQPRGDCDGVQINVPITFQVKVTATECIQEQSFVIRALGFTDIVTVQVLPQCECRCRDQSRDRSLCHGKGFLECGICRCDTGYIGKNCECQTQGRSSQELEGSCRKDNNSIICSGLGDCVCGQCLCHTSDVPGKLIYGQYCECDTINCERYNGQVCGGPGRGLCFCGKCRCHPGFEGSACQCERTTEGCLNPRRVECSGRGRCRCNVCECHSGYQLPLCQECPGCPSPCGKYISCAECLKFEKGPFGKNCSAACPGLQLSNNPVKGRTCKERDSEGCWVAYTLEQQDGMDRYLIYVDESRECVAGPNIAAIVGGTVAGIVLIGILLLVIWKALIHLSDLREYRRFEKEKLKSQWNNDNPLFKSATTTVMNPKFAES

Regarding `[Mg+2]` [Mg^2+, Magnesium], the “Activation-induced LFA-1 head-piece opening on PHA-blasts” value on LFA-1 is “Mg^2+-dependent”. For the same molecule, the “Phosphorylation of focal adhesion kinase (FAK)” value in test [1] is on record as “decreased”.

Source of the values: US20240010726A1, “LFA-1 SIGNALLING MEDIATOR FOR USE IN CANCER THERAPY” (Universität Basel, priority 2020, published 2024).
